Measured values from US6403626B1, “Benzimidazole derivatives” (Synaptic Pharmaceutical Corporation, priority 1994, dated 2002).
Read-outs that look alike come from different tables or passages of the source. One block for each molecule: values may come before it.

Key:
[1] = biological target: T1, α1B Human Adrenergic Receptor (Homo sapiens, UniProt P35368); assay: Equilibrium competition binding, [3H] prazosin, membranes of transfected LM(tk-) cells
T1 construct: The entire coding region of α1B(1563 bp); expressed in transfected cells; host or cells: LM(tk-) cells
T1 sequence (P35368 1-520): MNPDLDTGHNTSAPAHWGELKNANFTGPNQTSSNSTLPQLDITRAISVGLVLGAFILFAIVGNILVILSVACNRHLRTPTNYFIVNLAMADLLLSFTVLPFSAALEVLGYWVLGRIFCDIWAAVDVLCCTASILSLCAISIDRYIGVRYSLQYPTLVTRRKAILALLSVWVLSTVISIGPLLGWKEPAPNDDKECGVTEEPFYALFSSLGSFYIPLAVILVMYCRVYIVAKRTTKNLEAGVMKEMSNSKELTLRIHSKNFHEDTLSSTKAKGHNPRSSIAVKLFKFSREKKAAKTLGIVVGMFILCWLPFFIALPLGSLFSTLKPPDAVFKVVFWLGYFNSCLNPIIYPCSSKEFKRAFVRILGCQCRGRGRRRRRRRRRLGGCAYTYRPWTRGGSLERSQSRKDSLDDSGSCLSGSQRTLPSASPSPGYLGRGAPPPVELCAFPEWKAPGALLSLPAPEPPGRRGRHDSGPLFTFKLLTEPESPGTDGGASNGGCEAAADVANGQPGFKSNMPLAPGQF

[2] = biological target: T2, α2C Human Adrenergic Receptor (Homo sapiens, UniProt P18825); assay: Equilibrium competition binding, [3H] rauwolscine, membranes of transfected LM(tk-) cells
T2 sequence (P18825 1-462): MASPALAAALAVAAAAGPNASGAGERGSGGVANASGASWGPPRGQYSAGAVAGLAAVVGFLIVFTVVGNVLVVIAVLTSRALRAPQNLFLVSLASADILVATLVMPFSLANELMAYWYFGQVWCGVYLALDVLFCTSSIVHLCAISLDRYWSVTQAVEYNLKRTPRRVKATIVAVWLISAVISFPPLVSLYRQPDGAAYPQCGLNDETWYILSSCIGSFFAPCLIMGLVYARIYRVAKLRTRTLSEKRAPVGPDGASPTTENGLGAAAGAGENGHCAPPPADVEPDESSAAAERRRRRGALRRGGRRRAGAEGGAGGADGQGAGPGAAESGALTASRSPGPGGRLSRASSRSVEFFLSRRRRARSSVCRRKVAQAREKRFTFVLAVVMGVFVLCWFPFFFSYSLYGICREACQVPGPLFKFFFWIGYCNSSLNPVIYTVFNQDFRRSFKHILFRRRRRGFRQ

[3] = biological target: T3, α1A Human Adrenergic Receptor (Homo sapiens, UniProt P25100); assay: Equilibrium competition binding, [3H] prazosin, membranes of transfected LM(tk-) cells
T3 construct: expressed in transfected cells; host or cells: LM(tk-) cells
T3 sequence (P25100 1-572): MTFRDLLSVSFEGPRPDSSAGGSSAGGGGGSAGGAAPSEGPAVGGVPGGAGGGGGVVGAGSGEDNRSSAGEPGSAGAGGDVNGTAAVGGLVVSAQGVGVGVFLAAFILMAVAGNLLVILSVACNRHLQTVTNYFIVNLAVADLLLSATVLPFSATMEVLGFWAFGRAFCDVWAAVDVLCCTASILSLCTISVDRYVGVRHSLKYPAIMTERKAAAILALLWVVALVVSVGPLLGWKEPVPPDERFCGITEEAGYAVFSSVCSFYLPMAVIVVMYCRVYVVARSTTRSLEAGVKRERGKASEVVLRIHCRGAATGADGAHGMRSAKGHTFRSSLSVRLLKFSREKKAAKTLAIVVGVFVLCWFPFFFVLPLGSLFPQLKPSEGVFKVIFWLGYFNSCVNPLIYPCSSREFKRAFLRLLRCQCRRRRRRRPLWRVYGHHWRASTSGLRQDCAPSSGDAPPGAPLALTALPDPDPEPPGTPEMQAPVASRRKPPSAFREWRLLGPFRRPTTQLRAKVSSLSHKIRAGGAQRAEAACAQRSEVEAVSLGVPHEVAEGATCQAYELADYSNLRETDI

[4] = biological target: T4, α2B Human Adrenergic Receptor (Homo sapiens, UniProt P18089); assay: Equilibrium competition binding, [3H] rauwolscine, membranes of transfected Y-1 cells
T4 construct: expressed in transfected cells; host or cells: Y-1 cells
T4 sequence (P18089 1-450): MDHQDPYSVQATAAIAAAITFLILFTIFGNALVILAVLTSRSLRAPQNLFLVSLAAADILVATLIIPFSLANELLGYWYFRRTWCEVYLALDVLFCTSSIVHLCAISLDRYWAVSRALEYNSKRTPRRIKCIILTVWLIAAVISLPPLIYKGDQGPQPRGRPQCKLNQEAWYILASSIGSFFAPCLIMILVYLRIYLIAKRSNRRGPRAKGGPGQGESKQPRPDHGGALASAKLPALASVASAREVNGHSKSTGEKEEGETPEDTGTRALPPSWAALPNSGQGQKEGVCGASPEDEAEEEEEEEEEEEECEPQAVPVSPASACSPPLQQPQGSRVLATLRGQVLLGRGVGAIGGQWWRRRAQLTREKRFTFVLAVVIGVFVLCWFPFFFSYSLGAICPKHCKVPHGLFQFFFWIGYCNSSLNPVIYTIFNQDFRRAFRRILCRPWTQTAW

[5] = cloned human receptor, [3H] prazosin, read-out: pKi Alpha-1 B (converted)
[6] = cloned human receptor, [3H] prazosin, read-out: pKi Alpha-1 A (converted)
[7] = cloned human receptor, [3H] rauwolscine, read-out: pKi Alpha-2 B (converted)
[8] = cloned human receptor, [3H] prazosin
[9] = cloned human receptor, [3H] rauwolscine

Compound: Cc1nc2ccc(NC3=NCCN3)c(Br)c2[nH]1 [Example 42, 2-Methyl-4-bromo-5-(2-imidazolin-2-ylamino)Benzimidazole]
- Ki [1, 5]: 8.51 µM
- Ki [2]: 214 nM
- Ki [3]: 1620 nM
- Ki [4]: 23.4 nM

Compound: Brc1cc2nc[nH]c2c(Br)c1NC1=NCCN1 [Example 50, 4,6-Dibromo-5-(2-imidazolin-2-ylamino)Benzimidazole]
- Ki [1, 5]: 0.166 µM
- Ki [2]: 24.5 nM
- Ki [3]: 35.5 nM
- Ki [4]: 2.34 nM

Compound: CCc1nc2ccc(NC3=NCCN3)c(Br)c2[nH]1 [Example 43, 2-Ethyl-4-bromo-5-(2-imidazolin-2-ylamino)Benzimidazole]
- Ki [1, 5]: 6.92 µM
- Ki [3]: 1740 nM
- Ki [4]: 33.9 nM

- Ki [1, 5]: 0.049 µM
- Ki [2]: 245 nM
- Ki [3, 6]: 1230 nM
- Ki [4, 7]: 661 nM
Compound: Brc1c(NC2=NCCN2)ccc2nc(C(c3ccccc3)c3ccccc3)[nH]c12 [Example 48, 2-Diphenylmethyl-4-bromo-5-(2-imidazolin-2-ylamino)Benzimidazole]

Compound: Cn1cnc2ccc(NC3=NCCN3)c(Br)c21 [Example 12, 3-Methyl-4-bromo-5-(imidazolin-2-ylamino)Benzimidazole]
- pKi Alpha-1 B [1, 8]: 6.46
- pKi Alpha-2 C [2, 9]: 7.59
- pKi Alpha-1 A [3, 8]: 7.02
- pKi Alpha-2 B [4, 9]: 7.84

Compound: CCCCc1cc(NC2=NCCN2)cc2[nH]cnc12 [Example 56, 7-Butyl-5-(2-imidazolin-2-ylamino)Benzimidazole]
- Ki [1, 5]: 5.13 µM
- Ki [3]: 1260 nM
- Ki [4, 7]: 182 nM

Compound: CC(C)(C)c1nc2ccc(NC3=NCCN3)c(Br)c2[nH]1 [Example 45, 2-tert-Butyl-4-bromo-5-(2-imidazolin-2-ylamino)Benzimidazole]
- Ki [1, 5]: 11.5 µM
- Ki [3]: 4570 nM
- Ki [4]: 83.2 nM

Compound: Clc1cc(NC2=NCCN2)c(Br)c2[nH]cnc12 [Example 60, 4-Bromo-7-chloro-5-(2-imidazolin-2-ylamino)Benzimidazole]
- Ki [1, 5]: 0.316 µM
- Ki [2]: 16.2 nM
- Ki [3]: 224 nM
- Ki [4]: 0.468 nM

- Ki [1, 5]: 2.75 µM
- Ki [2]: 25.7 nM
- Ki [3, 6]: 603 nM
- Ki [4, 7]: 9.12 nM
Compound: Cc1c(N=C2NCCN2)ccc2[nH]cnc12 [Example 4, 4-Methyl-5-(2-imidazolin-2-ylamino)Benzimidazole]

Compound: OCCn1cnc2c(Br)c(NC3=NCCN3)ccc21 [Example 38, 1-(2-Hydroxyethyl)-4-bromo-5-(2-imidazolin-2-ylamino)Benzimidazole]
- Ki [1]: 17.4 µM
- Ki [2]: 1290 nM
- Ki [3]: 7240 nM
- Ki [4, 7]: 525 nM

Compound: Brc1c(NC2=NCCN2)ccc2nc[nH]c12 [Example 2, 4-Bromo-5-(2-imidazolin-2-ylamino)Benzimidazole]
- Ki [1]: 5.89 µM
- Ki [2]: 97.7 nM
- Ki [3]: 955 nM
- Ki [4, 7]: 20.4 nM

Compound: FC(F)(F)c1nc2ccc(NC3=NCCN3)c(Br)c2[nH]1 [Example 46, 2-Trifluoromethyl-4-bromo-5-(2-imidazolin-2-ylamino)Benzimidazole]
- Ki [1, 5]: 28.2 µM
- Ki [3]: 7080 nM
- Ki [4]: 105 nM

Compound: CC(C)c1nc2ccc(NC3=NCCN3)c(Br)c2[nH]1 [Example 44, 2-Isopropyl-4-bromo-5-(2-imidazolin-2-ylamino)Benzimidazole]
- Ki [1, 5]: 5.89 µM
- Ki [2]: 214 nM
- Ki [3]: 2040 nM
- Ki [4]: 46.8 nM

Compound: COc1ccc(Cn2cnc3c(Br)c(NC4=NCCN4)ccc32)cc1 [Example 36, 1-(4-Methoxybenzyl)-4-bromo-5-(2-imidazolin-2-ylamino)Benzimidazole]
- Ki [1]: 11 µM
- Ki [2]: 166 nM
- Ki [3]: 813 nM
- Ki [4, 7]: 107 nM

Compound: Cn1cnc2cc(NC3=NCCN3)ccc21 [Example 9, 1-Methyl-5-(2-imidazolin-2-ylamino)Benzimidazole]
- Ki [1, 5]: 13.5 µM
- Ki [3]: 2750 nM
- Ki [4, 7]: 46.8 nM

Compound: Clc1cc(NC2=NCCN2)cc2[nH]cnc12 [Example 53, 7-Chloro-5-(2-imidazolin-2-ylamino)Benzimidazole]
- Ki [1, 5]: 1.91 µM
- Ki [2]: 89.1 nM
- Ki [3]: 309 nM
- Ki [4]: 18.2 nM

Compound: Ic1c(NC2=NCCN2)ccc2nc[nH]c12 [Example 5, 4-Iodo-5-(2-imidazolin-2-ylamino)Benzimidazole]
- Ki [1, 5]: 1.82 µM
- Ki [2]: 24 nM
- Ki [3]: 537 nM
- Ki [4]: 30.9 nM

Compound: c1nc2ccc(NC3=NCCN3)cc2[nH]1 [Example 1, 5-(2-Imidazolin-2-ylamino)Benzimidazole]
- Ki [1, 5]: 24.5 µM
- Ki [2]: 70.8 nM
- Ki [3]: 6760 nM
- Ki [4]: 74.1 nM

Compound: Cn1cnc2c(Br)c(NC3=NCCN3)ccc21 [Example 10, 1-Methyl-4-bromo-5-(2-imidazolin-2-ylamino)Benzimidazole]
- Ki [1, 5]: 3.8 µM
- melting point: 237 to 238 °C
- Ki [2]: 15.5 nM
- Ki [3]: 617 nM
- Ki [4]: 28.2 nM

Compound: CCCc1c(NC2=NCCN2)ccc2nc[nH]c12 [Example 7, 4-n-Propyl-5-(2-imidazolin-2-ylamino)Benzimidazole]
- Ki [1, 5]: 1.23 µM
- Ki [2]: 41.7 nM
- Ki [3]: 269 nM

Compound: Clc1c(NC2=NCCN2)ccc2nc[nH]c12 [Example 3, 4-Chloro-5-(2-imidazolin-2-ylamino)Benzimidazole]
- Ki [1, 5]: 8.13 µM
- Ki [2]: 100 nM
- Ki [3]: 537 nM
- Ki [4, 7]: 15.5 nM

Compound: CCCCc1c(NC2=NCCN2)ccc2nc[nH]c12 [Example 8, 4-n-Butyl-5-(2-imidazolin-2-ylamino)Benzimidazole]
- Ki [1, 5]: 2.63 µM
- Ki [3]: 676 nM
- Ki [4, 7]: 50.1 nM
